In ChEMBL document CHEMBL1138458, “Fructose-1,6-bisphosphatase inhibitors. 1. Purine phosphonic acids as novel AMP mimics” (J Med Chem, 2009):

Assays:
[1] = target: T1, Fructose-1,6-bisphosphatase 1 (Homo sapiens, UniProt P09467); assay: Inhibition of human liver FBPase expressed in Escherichia coli by spectrophotometry
T1 sequence (P09467 whole entry): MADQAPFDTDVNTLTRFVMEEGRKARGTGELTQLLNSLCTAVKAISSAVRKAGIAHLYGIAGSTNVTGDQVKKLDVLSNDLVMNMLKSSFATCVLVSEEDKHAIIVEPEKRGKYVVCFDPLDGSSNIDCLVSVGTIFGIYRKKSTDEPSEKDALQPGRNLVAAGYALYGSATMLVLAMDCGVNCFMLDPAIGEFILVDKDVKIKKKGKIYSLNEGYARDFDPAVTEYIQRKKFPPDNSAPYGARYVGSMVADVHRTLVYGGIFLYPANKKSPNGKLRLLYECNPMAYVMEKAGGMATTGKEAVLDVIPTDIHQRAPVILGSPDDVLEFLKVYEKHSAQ

Hepatocyte = assay: Inhibition of glucose production in rat primary hepatocytes treated for 15 to 30 mins prior to gluconeogenic substrate dihydroxyacetone addition; type: functional, cell-based
Rattus norvegicus [2] = assay: Oral bioavailability in fasted Sprague-Dawley rat assessed as urinary excretion of phosphonic acid up to 300 mg/kg; type: ADME, organism-based, Urine; conditions: in vivo
Adenosine kinase = Adenosine kinase (Homo sapiens, UniProt P55263); assay: Inhibition of human recombinant adenosine kinase expressed in Escherichia coli
Chain of Adenosine kinase (P55263 whole entry): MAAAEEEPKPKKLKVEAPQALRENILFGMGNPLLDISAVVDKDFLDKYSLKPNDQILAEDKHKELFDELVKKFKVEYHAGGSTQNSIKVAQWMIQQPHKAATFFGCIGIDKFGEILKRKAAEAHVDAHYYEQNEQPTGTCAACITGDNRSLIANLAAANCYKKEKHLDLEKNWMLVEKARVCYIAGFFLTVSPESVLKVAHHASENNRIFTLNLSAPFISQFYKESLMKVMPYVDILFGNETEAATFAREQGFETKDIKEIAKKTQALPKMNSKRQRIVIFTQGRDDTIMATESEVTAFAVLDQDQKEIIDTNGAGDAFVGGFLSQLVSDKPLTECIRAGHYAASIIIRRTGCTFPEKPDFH

[3] = Inhibition of New Zealand white rabbit liver phosphofructokinase; design: species or system Oryctolagus cuniculus
[4] = Inhibition of pig heart AMP deaminase; design: species or system Sus scrofa
[5] = target: T2, Fructose-1,6-bisphosphatase 1 (Rattus norvegicus, UniProt P19112); assay: Inhibition of rat liver FBPase
T2 sequence (P19112 whole entry): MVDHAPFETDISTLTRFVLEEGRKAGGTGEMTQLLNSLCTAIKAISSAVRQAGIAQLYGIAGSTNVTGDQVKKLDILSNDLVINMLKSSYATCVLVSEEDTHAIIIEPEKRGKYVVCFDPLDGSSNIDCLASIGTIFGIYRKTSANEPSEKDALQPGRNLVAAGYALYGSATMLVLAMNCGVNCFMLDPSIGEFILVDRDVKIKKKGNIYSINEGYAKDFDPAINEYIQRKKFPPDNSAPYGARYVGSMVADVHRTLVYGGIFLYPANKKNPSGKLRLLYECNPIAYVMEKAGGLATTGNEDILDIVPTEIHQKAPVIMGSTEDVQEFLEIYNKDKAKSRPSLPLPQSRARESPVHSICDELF

[6] = target: T3, Fructose-1,6-bisphosphatase 1 (Homo sapiens) (UniProt P09467)
T3 sequence (whole entry): T1 sequence (P09467 whole entry)
Description: Displacement of [3H]AMP from human liver FBPase

Liver [7] = assay: Drug concentration in overnight-fasted Sprague-Dawley rat liver assessed as {5-[6-Amino-9-(2,2-dimethyl-propyl)-9H-purin-8-yl]-furan-2-yl}- phosphonic acid level at 50 mg/kg, po after 1 hr; type: ADME, organism-based; design: dose 50 mg/kg, route oral; conditions: in vivo
Liver [8] = assay: Drug concentration in overnight-fasted Sprague-Dawley rat liver assessed as {5-[6-Amino-9-(2,2-dimethyl-propyl)-9H-purin-8-yl]-furan-2-yl}- phosphonic acid level at 50 mg/kg, po after 2 hrs; type: ADME, organism-based; design: dose 50 mg/kg, route oral; conditions: in vivo
[9] = Plasma concentration in overnight-fasted Sprague-Dawley rat at 20 mg/kg, ip after 1 hr; type: ADME, organism-based; design: dose 20 mg/kg, route intraperitoneal
Liver [10] = assay: Drug concentration in overnight-fasted Sprague-Dawley rat liver at 20 mg/kg, ip after 1 hr; type: ADME, organism-based; design: dose 20 mg/kg, route intraperitoneal; conditions: in vivo
Rattus norvegicus [11] = assay: Increase in fructose-1,6-bisphosphate level in overnight-fasted Sprague-Dawley rat liver at 20 mg/kg, ip relative to control; type: organism-based; design: dose 20 mg/kg, route intraperitoneal; conditions: in vivo
[12] = target: T4, Glycogen phosphorylase, muscle form (Oryctolagus cuniculus, UniProt P00489); assay: Inhibition of rabbit muscle glycogen phosphorylase
T4 sequence (P00489 whole entry): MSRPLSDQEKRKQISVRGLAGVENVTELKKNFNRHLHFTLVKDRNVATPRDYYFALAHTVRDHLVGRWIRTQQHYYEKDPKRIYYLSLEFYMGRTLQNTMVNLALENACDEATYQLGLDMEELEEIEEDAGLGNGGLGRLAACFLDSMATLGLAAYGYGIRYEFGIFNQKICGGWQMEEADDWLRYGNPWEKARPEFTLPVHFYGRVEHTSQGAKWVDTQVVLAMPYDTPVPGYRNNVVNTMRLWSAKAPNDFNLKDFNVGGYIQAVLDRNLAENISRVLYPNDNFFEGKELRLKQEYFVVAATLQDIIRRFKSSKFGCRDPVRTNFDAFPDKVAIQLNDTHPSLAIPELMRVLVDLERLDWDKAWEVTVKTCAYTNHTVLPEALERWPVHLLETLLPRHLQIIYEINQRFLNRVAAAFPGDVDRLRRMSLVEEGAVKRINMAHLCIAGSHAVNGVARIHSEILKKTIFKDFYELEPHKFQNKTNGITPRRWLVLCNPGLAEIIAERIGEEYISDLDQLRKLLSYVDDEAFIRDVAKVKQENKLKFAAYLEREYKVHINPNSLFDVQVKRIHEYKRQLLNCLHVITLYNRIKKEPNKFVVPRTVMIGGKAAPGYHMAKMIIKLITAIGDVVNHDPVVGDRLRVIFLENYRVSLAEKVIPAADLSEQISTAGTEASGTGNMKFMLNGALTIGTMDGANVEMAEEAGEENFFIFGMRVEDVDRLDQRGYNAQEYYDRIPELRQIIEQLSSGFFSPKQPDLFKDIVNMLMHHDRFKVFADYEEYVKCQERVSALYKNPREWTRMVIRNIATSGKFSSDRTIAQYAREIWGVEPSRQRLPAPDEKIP

Rattus norvegicus [13] = assay: Reduction in blood glucose level in overnight-fasted Sprague-Dawley rat at 20 mg/kg, ip within 1 hr; type: organism-based; design: dose 20 mg/kg, route intraperitoneal; scale not given: the % may be the effect or the level left; conditions: in vivo

| SMILES | IC50 [1] [µM] | also measured |
| --- | --- | --- |
| Nc1ncnc2c1nc(CCC(=O)O)n2[C@@H]1O[C@H](CO)[C@@H](O)[C@H]1O | > 100 |  |
| Nc1ncnc2c1nc(SCCP(=O)(O)O)n2CCc1ccccc1 | 145 |  |
| Nc1ncnc2c1nc(-c1ccc(P3(=O)OCCSSCCO3)o1)n2CCc1ccccc1 |  | EC50 (Hepatocyte): 250 µM |
| Nc1ncnc2c1nc(COCP(=O)(O)O)n2CCc1ccccc1 | 23 |  |
| Nc1ncnc2c1nc(/C=C/CP(=O)(O)O)n2CCc1ccccc1 | 100 |  |
| CN(C)c1ncnc2c1nc(-c1ccc(P(=O)(O)O)o1)n2CCc1ccccc1 | 250 |  |
| Nc1ncnc2c1nc(/C=C/C(=O)O)n2[C@@H]1O[C@H](CO)[C@@H](O)[C@H]1O | > 100 |  |
| Nc1ncnc2c1nc(-c1ccc(P(=O)(O)O)o1)n2CCc1ccccc1 |  | F (Rattus norvegicus [2]): < 5%; IC50 (Adenosine kinase): > 100 µM; EC50 [3]: > 200 µM; IC50 [4]: 6.7 µM; EC50 (Hepatocyte): 5 µM; IC50 [5]: 40 µM |
| COc1ccc(COP(=O)(OCc2ccc(OC)c(C#N)c2)c2ccc(-c3nc4c(N)ncnc4n3CCc3ccccc3)o2)cc1C#N |  | EC50 (Hepatocyte): > 100 µM |
| Nc1ncnc2c1nc(CCOP(=O)(O)O)n2CCc1ccccc1 | 40 |  |
| NC(=O)c1ncn([C@@H]2O[C@H](COP(=O)(O)O)[C@@H](O)[C@H]2O)c1N | 12 | ED50 [6]: 250 µM |
| Nc1ncnc2c1nc(-c1ccc(S(=O)(=O)O)o1)n2CCc1ccccc1 | 150 |  |
| COc1cc2c(c(OC)c1OC)C(=O)OC2OP(=O)(OC1OC(=O)c2c1cc(OC)c(OC)c2OC)c1ccc(-c2nc3c(N)ncnc3n2CCc2ccccc2)o1 (configuration not stated) |  | EC50 (Hepatocyte): 75 µM |
| Nc1ncnc2c1nc(-c1ccc(C(=O)O)o1)n2CCc1ccccc1 | > 100 |  |
| CCn1c(-c2ccc(P(=O)(O)O)o2)nc2c(N)ncnc21 | 1.8 |  |
| CC(C)(C)Cn1c(-c2ccc(P(=O)(OCOC(=O)C(C)(C)C)OCOC(=O)C(C)(C)C)o2)nc2c(N)ncnc21 |  | F (Rattus norvegicus [2]): 5.3% |
| Nc1ncnc2c1nc(-c1ccc(P(=O)(O)O)o1)n2C1CC1 | 1.5 |  |
| CC(=O)OC1CCCC(OP(=O)(OC2CCCC(OC(C)=O)C2)c2ccc(-c3nc4c(N)ncnc4n3CCc3ccccc3)o2)C1 (configuration not stated) |  | EC50 (Hepatocyte): 400 µM |
| CN(C)CC(C)(C)Cn1c(-c2ccc(P(=O)(O)O)o2)nc2c(N)ncnc21 | > 10 |  |
| Nc1ncnc2c1nc(CCCP(=O)(O)O)n2CCc1ccccc1 | 100 |  |

| SMILES | IC50 [1] [µM] | also measured |
| --- | --- | --- |
| Nc1ncnc2c1nc(CCC[PH](=O)O)n2CCc1ccccc1 | > 1000 |  |
| Nc1ncnc2c1nc(-c1ccc(P(=O)(OCCSSCCO)OCCSSCCO)o1)n2CCc1ccccc1 |  | EC50 (Hepatocyte): > 500 µM |
| Nc1ncnc2c1nc(S(=O)(=O)CCP(=O)(O)O)n2CCc1ccccc1 | > 1000 |  |
| CC(C)(C)Cn1c(Cn2ccnc2P(=O)(O)O)nc2c(N)ncnc21 | > 100 |  |
| Cn1c(-c2nc3c(N)ncnc3n2CC(C)(C)C)ccc1P(=O)(O)O | > 10 |  |
| CC(C)Cn1c(-c2ccc(P(=O)(O)O)o2)nc2c(N)ncnc21 | 1.5 | EC50 (Hepatocyte): 18 µM; IC50 [5]: 7 µM |
| CC(C)(CCl)Cn1c(-c2ccc(P(=O)(O)O)o2)nc2c(N)ncnc21 |  | EC50 (Hepatocyte): 7.5 µM; IC50 [5]: > 2 µM |
| Nc1ncnc2c1nc(NCC(=O)O)n2[C@@H]1O[C@H](CO)[C@@H](O)[C@H]1O | > 100 |  |
| Nc1ncnc2c1nc(C(=O)NCP(=O)(O)O)n2CCc1ccccc1 | 100 |  |
| CC(C)C(=O)OCOP(=O)(OCOC(=O)C(C)C)c1ccc(-c2nc3c(N)ncnc3n2CCc2ccccc2)o1 |  | EC50 (Hepatocyte): 25 µM |
| Cn1c(P(=O)(O)O)cnc1-c1nc2c(N)ncnc2n1CC(C)(C)C | > 10 |  |
| CC(C)C(=O)OCOP(=O)(OCOC(=O)C(C)C)c1ccc(-c2nc3c(N)ncnc3n2CC(C)(C)C)o1 |  | F (Rattus norvegicus [2]): 8.1%; Drug uptake (Liver [7]): 3.5 nmol/g; Drug uptake (Liver [8]): 2 nmol/g; EC50 (Hepatocyte): 3 µM |
| Nc1ncnc2c1nc(NCCP(=O)(O)O)n2Cc1ccccc1 | 91 |  |
| Nc1ncnc2c1nc(NCCOP(=O)(O)O)n2[C@@H]1O[C@H](CO)[C@@H](O)[C@H]1O | 140 |  |
| CC(Cc1nc2c(N)ncnc2n1CCc1ccccc1)[PH](=O)O (configuration not stated) | > 1000 |  |
| CC(n1c(-c2ccc(P(=O)(O)O)o2)nc2c(N)ncnc21)C(C)(C)C (configuration not stated) | 5 |  |
| Nc1ncnc2c1nc(CCO[PH](=O)O)n2CCc1ccccc1 | > 1000 |  |
| CC(C)(CO)Cn1c(-c2ccc(P(=O)(O)O)o2)nc2c(N)ncnc21 |  | EC50 (Hepatocyte): 50 µM; IC50 [5]: > 20 µM |
| CSc1nc(N)c2nc(-c3ccc(P(=O)(O)O)o3)n(CC(C)(C)C)c2n1 | 1.1 | EC50 (Hepatocyte): 8.5 µM; IC50 [5]: 4 µM |
| Nc1ncnc2c1nc(NCP(=O)(O)O)n2[C@@H]1O[C@H](CO)[C@@H](O)[C@H]1O | > 100 |  |

| SMILES | IC50 [1] [µM] | also measured |
| --- | --- | --- |
| CC(C)(C)CCn1c(-c2ccc(P(=O)(O)O)o2)nc2c(N)ncnc21 | 1.6 |  |
| Nc1ncnc2c1nc(NCCP(=O)(O)O)n2Cc1ccc2ccccc2c1 | 35 |  |
| CSc1nc(N)c2nc(-c3ccc(P(=O)(O)O)o3)n(CC(C)C)c2n1 |  | EC50 (Hepatocyte): > 25 µM; IC50 [5]: > 20 µM |
| CC(C)Cn1c(-c2ccc(P(=O)(O)O)o2)nc2c(N)nc(S(C)(=O)=O)nc21 | 28 |  |
| O=P(O)(O)c1ccc(-c2nc3c(Cl)ncnc3n2CCc2ccccc2)o1 | 50 |  |
| CC(C)(C)Cn1c(-c2ccc(P(=O)(O)O)o2)nc2c(N)nc(N)nc21 | 5.5 |  |
| Nc1ncnc2c1nc(NCCP(=O)(O)O)n2CCc1ccccc1 | 100 |  |
| CNc1ncnc2c1nc(-c1ccc(P(=O)(O)O)o1)n2CCc1ccccc1 | 50 |  |
| Nc1ncnc2c1nc(NCCCP(=O)(O)O)n2[C@@H]1O[C@H](CO)[C@@H](O)[C@H]1O | > 100 |  |
| Nc1ncnc2c1nc(-c1ccc(P(=O)(O)O)s1)n2CCc1ccccc1 | 48 |  |
| Nc1ncnc2c1nc(-c1ccc(P(=O)(O)O)o1)n2CCC1CCCCC1 |  | EC50 (Hepatocyte): 90 µM; ED50 [6]: 35 µM; IC50 [5]: 20 µM |
| CC(C)(C)Cn1c(-c2ccc(P(=O)(O)O)o2)nc2c(N)ncnc21 |  | concentration at 1 h [9]: 38.5 µM; Drug uptake (Liver [10]): 51.3 nmol/g; F (Rattus norvegicus [2]): 1.6%; IC50 (Adenosine kinase): > 100 µM; EC50 [3]: > 100 µM; Activity (Rattus norvegicus [11]): 10; EC50 [12]: > 100 µM; IC50 [4]: 390 µM; Activity (Rattus norvegicus [13]): 65%; EC50 (Hepatocyte): 90 µM |
| Nc1ncnc2c1nc(CNCP(=O)(O)O)n2CCc1ccccc1 | > 500 |  |
| Nc1ncnc2[nH]c(NCCP(=O)(O)O)nc12 | > 100 |  |
| C[C@H]1O[C@@H](n2c(NCCP(=O)(O)O)nc3c(N)ncnc32)[C@H](O)[C@@H]1O | 100 |  |
| CC(C)(C)Cn1c(-c2coc(P(=O)(O)O)c2)nc2c(N)ncnc21 | > 10 |  |
| Nc1ncnc2c1nc(-c1ccc(P(=O)(O)O)o1)n2CC(c1ccccc1)c1ccccc1 | 70 |  |
| Nc1ncnc2c1nc(NCCC(=O)O)n2[C@@H]1O[C@H](CO)[C@@H](O)[C@H]1O | > 100 |  |
| Nc1ncnc2c1nc(-c1ccc(P(=O)(O)O)o1)n2C1CCCC1 |  | EC50 (Hepatocyte): 24 µM; IC50 [5]: > 20 µM |
